Test results reported in PMC9730799, “Elucidation of the interactome of the sucrose transporter StSUT4: sucrose transport is connected to ethylene and calcium signalling” (Journal of Experimental Botany, 2022).

Biological target: T1, StSUT4 (Solanum tuberosum, UniProt Q9FV92)
T1 construct: gene SUT4; StSUT4 cDNA in pDR196, expressed in yeast cells
T1 sequence (Q9FV92 1-500): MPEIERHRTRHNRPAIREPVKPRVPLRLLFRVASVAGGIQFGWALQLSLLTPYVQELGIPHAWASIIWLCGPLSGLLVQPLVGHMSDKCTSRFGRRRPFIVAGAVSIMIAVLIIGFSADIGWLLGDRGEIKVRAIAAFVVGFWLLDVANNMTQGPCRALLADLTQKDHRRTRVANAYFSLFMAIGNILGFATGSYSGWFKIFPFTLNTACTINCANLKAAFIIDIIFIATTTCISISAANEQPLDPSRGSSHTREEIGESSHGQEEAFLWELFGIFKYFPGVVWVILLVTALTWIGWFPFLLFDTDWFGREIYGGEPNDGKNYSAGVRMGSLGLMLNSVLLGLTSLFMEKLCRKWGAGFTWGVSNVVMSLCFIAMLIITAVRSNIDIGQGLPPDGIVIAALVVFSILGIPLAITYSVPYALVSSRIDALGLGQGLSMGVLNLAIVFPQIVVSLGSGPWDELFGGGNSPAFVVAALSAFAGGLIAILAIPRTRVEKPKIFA
Assay: competition with esculin uptake in yeast, fluorescence
Format: cell-based
Conditions: 8 mM esculin, pH 5.0, 20 mM unlabelled sucrose

- % inhibition at 20 mM: ~ almost 50%
SMILES: OC[C@H]1O[C@@](CO)(O[C@H]2O[C@H](CO)[C@@H](O)[C@H](O)[C@H]2O)[C@@H](O)[C@@H]1O [sucrose]
